Laboratory results published in publication PMC11945486, “TAS1R2/TAS1R3 Single-Nucleotide Polymorphisms Affect Sweet Taste Receptor Activation by Sweeteners: The SWEET Project” (Nutrients, 2025).
No end group written: not given here.

T1: human TAS1R2-R317G/TAS1R3-WT (Homo sapiens, UniProt Q7RTX0+Q8TE23, R317G)
T1 construct: expressed in transfected cells; host or cells: HEK293T-Gα16gust44
T1 sequence (Q8TE23 20-839 R317G): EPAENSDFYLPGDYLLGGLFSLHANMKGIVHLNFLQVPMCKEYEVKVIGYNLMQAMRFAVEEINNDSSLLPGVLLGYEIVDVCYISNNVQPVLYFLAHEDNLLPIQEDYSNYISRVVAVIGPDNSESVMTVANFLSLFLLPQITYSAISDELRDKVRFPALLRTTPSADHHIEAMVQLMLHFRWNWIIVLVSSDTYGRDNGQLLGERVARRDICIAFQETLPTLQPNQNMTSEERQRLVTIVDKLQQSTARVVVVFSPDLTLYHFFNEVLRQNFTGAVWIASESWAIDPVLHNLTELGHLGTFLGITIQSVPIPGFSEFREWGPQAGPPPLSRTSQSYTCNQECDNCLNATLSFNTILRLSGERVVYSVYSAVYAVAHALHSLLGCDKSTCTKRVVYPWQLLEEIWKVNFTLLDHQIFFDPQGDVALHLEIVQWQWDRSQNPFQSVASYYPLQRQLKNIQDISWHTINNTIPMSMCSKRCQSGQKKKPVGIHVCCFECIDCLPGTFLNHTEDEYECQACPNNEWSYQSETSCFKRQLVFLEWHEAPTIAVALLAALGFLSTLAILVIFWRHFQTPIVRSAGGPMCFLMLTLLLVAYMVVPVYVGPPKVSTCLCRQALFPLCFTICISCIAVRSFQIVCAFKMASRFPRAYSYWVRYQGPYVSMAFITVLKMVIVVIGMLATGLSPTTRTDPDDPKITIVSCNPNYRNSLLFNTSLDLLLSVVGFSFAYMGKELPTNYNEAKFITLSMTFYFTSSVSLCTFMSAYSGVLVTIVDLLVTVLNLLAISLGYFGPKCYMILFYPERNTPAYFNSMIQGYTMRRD
T1 sequence (Q7RTX0 21-852): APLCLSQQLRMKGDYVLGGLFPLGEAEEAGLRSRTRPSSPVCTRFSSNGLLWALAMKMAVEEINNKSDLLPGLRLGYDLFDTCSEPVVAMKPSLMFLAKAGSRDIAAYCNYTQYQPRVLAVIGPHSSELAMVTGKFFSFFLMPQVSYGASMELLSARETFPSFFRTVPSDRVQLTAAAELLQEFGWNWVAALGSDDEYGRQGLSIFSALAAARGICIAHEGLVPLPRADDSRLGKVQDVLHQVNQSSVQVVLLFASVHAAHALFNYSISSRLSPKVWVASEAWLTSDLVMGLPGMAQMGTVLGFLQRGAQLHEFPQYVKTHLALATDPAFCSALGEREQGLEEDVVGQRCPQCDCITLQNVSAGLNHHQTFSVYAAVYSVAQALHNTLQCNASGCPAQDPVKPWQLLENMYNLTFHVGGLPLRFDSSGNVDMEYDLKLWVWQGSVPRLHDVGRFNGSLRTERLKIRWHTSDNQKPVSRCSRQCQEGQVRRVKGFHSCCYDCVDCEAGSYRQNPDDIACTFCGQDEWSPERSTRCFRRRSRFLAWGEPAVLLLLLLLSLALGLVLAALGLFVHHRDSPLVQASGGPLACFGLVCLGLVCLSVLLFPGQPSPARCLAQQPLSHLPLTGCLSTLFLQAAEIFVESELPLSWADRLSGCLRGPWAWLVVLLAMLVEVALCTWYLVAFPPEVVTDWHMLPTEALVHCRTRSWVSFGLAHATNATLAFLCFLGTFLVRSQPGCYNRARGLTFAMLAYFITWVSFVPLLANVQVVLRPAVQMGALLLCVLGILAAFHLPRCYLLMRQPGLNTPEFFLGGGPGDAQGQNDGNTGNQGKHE

B1: thaumatin (protein)
chain: ATFEIVNRCSYTVWAAASKGDAALDAGGRQLNSGESWTINVEPGTKGGKIWARTDCYFDDSGSGICKTGDCGGLLRCKRFGRPPTTLAEFSLNQYGKDYIDISNIKGFNVPMDFSPTTRGCRGVRCAADIVGQCPAKLKAPGGGCNDACTVFQTSEYCCTTGKCGPTEYSRFFKRLCPDAFSYVLDKPTTVTCPGSSNYRVTFCPTA
modifications: Eight disulfides
notes: sweet-tasting plant protein, E957

Target: T1, human TAS1R2-R317G/TAS1R3-WT
Test: Calcium mobilisation assay, TAS1R2 variant R317G with TAS1R3-WT
Format: cell-based
Settings: for Max ΔF/F0: maximal signal amplitude
Text: The coding sequences for TAS1R2 and TAS1R3 were commercially synthesised, and the human codon was optimised for expression in human cells. The coding sequences of human TAS1R2 and TAS1R3 were subcloned and inserted into the mammalian expression vectors pcDNA6/myc-HisA and pcDNA4/myc-HisA (Invitrogen; Thermo Fisher Scientific; Illkirch, France) between the EcoRI and NotI restriction sites, generating the plasmids pcDNA6-TAS1R2 and pcDNA4-TAS1R3, respectively. To increase protein expression in mammalian cells, an upstream start codon was used, which was a sequence called MAX, corresponding to the QBI SP163 element also described in pcDNA4-HisMax (Invitrogen; Thermo Fisher Scientific; Illkirch, France). To measure the expression level of the receptor by immunohistochemistry, we used the FLAG sequence ([…]) in the C-terminal position, which encodes the FLAG tag epitope. SNP variants of TAS1R2 and TAS1R3 were constructed based on […], respectively, using site-directed mutagenesis (Genewiz; Leipzig, Germany).
The HEK293T cells were kindly provided by Jay P. Slack (Givaudan Flavors Corporation; Cincinnati, OH, USA). HEK293T cells stably transfected with Gα16gust44 [43, 67] were seeded in poly-D-lysine-coated clear-bottom black 96-well plates (0.35 × 10^5 cells/well) in high-glucose DMEM supplemented with 2 mM GlutaMAX, 10% dialysed foetal bovine serum with penicillin/streptomycin and G418 (400 μg/mL) at 37 °C and 6.3% CO2 in a humidified atmosphere as previously reported. […] As a negative control, HEK293T cells were mock-transfected with the empty expression vector. After a further 24 h of incubation, the HEK293T cells were washed with C1 buffer (130 mM NaCl, 5 mM KCl, 10 mM HEPES pH 7.4 and 2 mM CaCl2). The 96-well plates containing the cells were then stimulated with sweet-tasting compounds. […] Different concentration ranges were tested depending on the sweet compound injected. The Ca^2+ changes were expressed as fractional changes in fluorescent light intensity: ΔF/F = (F − F0)/F0, where F was the fluorescent light intensity at each point, and F0 was the value of emitted fluorescent light prior to stimulus application. To calculate dose–response relationships, the changes in fluorescence upon stimulus application were averaged, mock-subtracted and baseline-corrected. The dose–response data obtained were adjusted using a 4-parameter logistic equation. The half-maximal effective concentrations (EC50 values) and maximal signal amplitudes were calculated using SigmaPlot software (version 15.0) (Systat Software; San Jose, CA, USA).
For in vitro calcium mobilisation assay performed on hTAS1R2-SNPs, hTAS1R3-SNPs and mTAS1R3-I60T, 6 to 7 concentrations were tested for each sweet compound, plus buffer alone. All concentration–receptor combinations were measured in duplicate, and each experiment was repeated at least 4 times (8 wells/concentration). Results were expressed for each concentration as ΔF/F mean ± SEM and represented as dose–response curves.

Row | Molecule | EC50 | R1 = Variant EC50/WT EC50 | Max ΔF/F0
1 | CC1=CC(=O)NS(=O)(=O)O1 [Acesulfame K, acesulfame K] | 465 ± 55 µM | 0.7 | 0.46 ± 0.02
2 | O=S(=O)(O)NC1CCCCC1 [Cyclamate, cyclamate] | 2160 ± 44 µM | – | –
3 | C[C@H](CC[C@@H](O[C@@H]1O[C@H](CO[C@@H]2O[C@H](CO)[C@@H](O)[C@H](O)[C@H]2O)[C@@H](O)[C@H](O)[C@H]1O[C@@H]1O[C@H](CO)[C@@H](O)[C@H](O)[C@H]1O)C(C)(C)O)[C@H]1CC[C@@]2(C)[C@@H]3CC=C4[C@@H](CC[C@H](O[C@@H]5O[C@H](CO[C@@H]6O[C@H](CO)[C@@H](O)[C@H](O)[C@H]6O)[C@@H](O)[C@H](O)[C@H]5O)C4(C)C)[C@]3(C)[C@H](O)C[C@]12C [Mogroside V, mogroside V] | 18.4 ± 1 µM | 1.1 | 1.34 ± 0.03
4 | COc1ccc(CCC(=O)c2c(O)cc(O[C@@H]3O[C@H](CO)[C@@H](O)[C@H](O)[C@H]3O[C@@H]3O[C@@H](C)[C@H](O)[C@@H](O)[C@H]3O)cc2O)cc1O [NHDC, neohesperidin dihydrochalcone] | 97.1 ± 5 µM | 1.3 | 0.85 ± 0.02
5 | COC(=O)[C@H](Cc1ccccc1)NC(=O)[C@H](CC(=O)O)NCCC(C)(C)C [Neotame] | 0.73 ± 0.13 µM | 0.9 | 0.56 ± 0.03
6 | C=C(C)[C@@H]1CC=C(/C=N/O)CC1 [Perillartine, perillartine] | 20.7 ± 0.6 µM | 1.2 | 1.53 ± 0.03
7 | C=C1C[C@@]23CC[C@H]4[C@@](C)(CCC[C@@]4(C)C(=O)O[C@@H]4O[C@H](CO)[C@@H](O)[C@H](O[C@@H]5O[C@H](CO)[C@@H](O)[C@H](O)[C@H]5O)[C@H]4O[C@@H]4O[C@H](CO)[C@@H](O)[C@H](O)[C@H]4O)[C@@H]2CC[C@]1(O[C@@H]1O[C@H](CO)[C@@H](O)[C@H](O[C@@H]2O[C@H](CO)[C@@H](O)[C@H](O)[C@H]2O)[C@H]1O[C@@H]1O[C@H](CO)[C@@H](O)[C@H](O)[C@H]1O)C3 [Rebaudioside M, rebaudioside M] | 20.4 ± 0.4 µM | 1.2 | 1.23 ± 0.01
8 | OC[C@H]1O[C@H](O[C@]2(CCl)O[C@H](CCl)[C@@H](O)[C@@H]2O)[C@H](O)[C@@H](O)[C@H]1Cl [Sucralose] | 62 ± 11 µM | 0.7 | 0.80 ± 0.05
9 | brazzein (QDKCKKVYENYPVSKCQLANQCNYDCKLDKHARSGECFYDEKRNLQCICDYCEY; ends and bridges not checked; cysteine pairing not given here; UniProt P56552 1-54, looked up) [sweet-tasting protein obtained by recombinant production using the yeast Pichia pastoris] | – | 1.3 | 1.18 ± 0.03
10 | thaumatin | – | 1.4 | 1.16 ± 0.02
11 | B1 | 10.9 ± 0.3 µM | – | –
